SMILES strings stand for the structures.

In general, melting point refers to the temperature, or range, at which the solid turns liquid. For `O=C(Nc1nc(-c2ccco2)c(C(=O)C2CCOCC2)s1)c1cc(F)cc(F)c1` [Compound 494, 3,5-Difluoro-N-[4-(2-furyl)-5-(tetrahydropyran-4-ylcarbonyl)thiazol-2-yl]benzamide], the melting point lay in the range of 259 to 265 °C.

`O=C(Nc1nc(-c2ccco2)c(C(=O)C2CCOCC2)s1)c1cccc2c1OCCO2` [Compound 495, N-[4-(2-Furyl)-5-(tetrahydropyran-4-ylcarbonyl)thiazol-2-yl]-1,4-benzodioxane-5-carboxamide] had a melting point of 188 to 190 °C.

`O=C(Nc1nc(-c2ccco2)c(C(=O)C2CCOCC2)s1)c1ccc2c(c1)OCO2` [Compound 496, N-[4-(2-Furyl)-5-(tetrahydropyran-4-ylcarbonyl)thiazol-2-yl]-1,3-benzodioxole-5-carboxamide] had a melting point of 194 to 196 °C.

Molecule `O=C(Nc1nc(-c2ccco2)c(C(=O)C2CCOCC2)s1)c1cccc2c1OC(F)(F)O2` [Compound 497, 2,2-Difluoro-N-[4-(2-furyl)-5-(tetrahydropyran-4-ylcarbonyl)thiazol-2-yl]-1,3-benzodioxole-4-carboxamide] displayed a melting point of 206 to 207 °C.

With `O=C(Nc1nc(-c2ccco2)c(C(=O)C2CCOCC2)s1)c1ccc2c(c1)OC(F)(F)O2` [Compound 498, 2,2-Difluoro-N-[4-(2-furyl)-5-(tetrahydropyran-4-ylcarbonyl)thiazol-2-yl]-1,3-benzodioxole-5-carboxamide], the melting point lay within 124 to 129 °C.

As to `O=C(Nc1nc(-c2ccco2)c(C(=O)C2CCOCC2)s1)c1ccnc(Cl)c1` [Compound 499, 2-Chloro-N-(4-(2-furyl)-5-(tetrahydropyran-4-ylcarbonyl)thiazol-2-yl]pyridine-4-carboxamide], the melting point is 185 to 186 °C.

As for `Cc1cc(C(=O)Nc2nc(-c3ccco3)c(C(=O)C3CCOCC3)s2)ccn1` [Compound 500, N-[4-(2-Furyl)-5-(tetrahydropyran-4-ylcarbonyl)thiazol-2-yl]-2-methylpyridine-4-carboxamide], the melting point was 169 to 173 °C.

Turning to `O=C(Nc1nc(-c2ccco2)c(C(=O)C2CCOCC2)s1)c1cccnc1` [Compound 501, N-[4-(2-Furyl)-5-(tetrahydropyran-4-ylcarbonyl)thiazol-2-yl]pyridine-3-carboxamide], the melting point lay in the range of 209 to 212 °C.

The molecule `O=C(Nc1nc(-c2ccco2)c(C(=O)C2CCOCC2)s1)c1ccc(N2CCOCC2)nc1` [Compound 503, N-[4-(2-Furyl)-5-(tetrahydropyran-4-ylcarbonyl)thiazol-2-yl]-2-morpholinopyridine-5-carboxamide] returned a melting point of 166 to 170 °C.

Regarding `O=C(Nc1nc(-c2ccco2)c(C(=O)C2CCOCC2)s1)c1ccc(C(F)(F)F)nc1` [Compound 505, N-[4-(2-Furyl)-5-(tetrahydropyran-4-ylcarbonyl)thiazol-2-yl]-2-(trifluoromethyl)pyridine-5-carboxamide], the melting point fell in the range of 217 to 222 °C.

Regarding `Cc1cncc(C(=O)Nc2nc(-c3ccco3)c(C(=O)C3CCOCC3)s2)c1` [Compound 506, N-[4-(2-Furyl)-5-(tetrahydropyran-4-ylcarbonyl)thiazol-2-yl]-5-methylpyridine-3-carboxamide], the melting point is 239 to 243 °C.

With `O=C(Nc1nc(-c2ccco2)c(C(=O)C2CCOCC2)s1)c1ccccn1` [Compound 507, N-[4-(2-Furyl)-5-(tetrahydropyran-4-ylcarbonyl)thiazol-2-yl]pyridine-2-carboxamide], the melting point was in the range of 185 to 186 °C.

Molecule `O=C(Nc1nc(-c2ccco2)c(C(=O)C2CCOCC2)s1)c1cnccn1` [Compound 509, N-[4-(2-Furyl)-5-(tetrahydropyran-4-ylcarbonyl)thiazol-2-yl]pyrazine-2-carboxamide] had a melting point of 200 to 205 °C.

Regarding `Cc1cnc(C(=O)Nc2nc(-c3ccco3)c(C(=O)C3CCOCC3)s2)cn1` [Compound 510, N-[4-(2-Furyl)-5-(tetrahydropyran-4-ylcarbonyl)thiazol-2-yl]-5-methylpyrazine-2-carboxamide], the melting point lay within 130 to 131 °C.

In turn, `Cc1ccc(C(=O)Nc2nc(-c3ccco3)c(C(=O)C3CCOCC3)s2)o1` [Compound 512, N-[4-(2-Furyl)-5-(tetrahydropyran-4-ylcarbonyl)thiazol-2-yl]-5-methylfuran-2-carboxamide] registered a melting point of 209 to 212 °C.

As for `O=C(Nc1nc(-c2ccco2)c(C(=O)C2CCOCC2)s1)c1ccoc1` [Compound 516, N-[4-(2-Furyl)-5-(tetrahydropyran-4-ylcarbonyl)thiazol-2-yl]furan-3-carboxamide], the melting point lay within 236 to 238 °C.

Take `O=C(Nc1nc(-c2ccco2)c(C(=O)C2CCOCC2)s1)c1cccs1` [Compound 517, N-[4-(2-Furyl)-5-(tetrahydropyran-4-ylcarbonyl)thiazol-2-yl]thiophene-2-carboxamide]: the melting point was in the range of 231 to 232 °C.

The molecule `O=C(Nc1nc(-c2ccco2)c(C(=O)C2CCOCC2)s1)c1ccsc1` [Compound 518, N-[4-(2-Furyl)-5-(tetrahydropyran-4-ylcarbonyl)thiazol-2-yl]thiophene-3-carboxamide] displayed a melting point of 227 to 229 °C.

In the case of `Cn1cc(C(=O)Nc2nc(-c3ccco3)c(C(=O)C3CCOCC3)s2)cn1` [Compound 519, N-[4-(2-Furyl)-5-(tetrahydropyran-4-ylcarbonyl)thiazol-2-yl]-1-methylpyrazole-4-carboxamide], the melting point was 243 to 247 °C.

On to `CCn1cc(C(=O)Nc2nc(-c3ccco3)c(C(=O)C3CCOCC3)s2)cn1` [Compound 520, 1-Ethyl-N-[4-(2-furyl)-5-(tetrahydropyran-4-ylcarbonyl)thiazol-2-yl]pyrazole-4-carboxamide], for which the melting point fell in the range of 170 to 174 °C.

Take `O=C(Nc1nc(-c2ccco2)c(C(=O)C2CCOCC2)s1)c1cnn(-c2ccccc2)c1` [Compound 521, N-[4-(2-Furyl)-5-(tetrahydropyran-4-ylcarbonyl)thiazol-2-yl]-1-phenylpyrazole-4-carboxamide]: the melting point was in the range of 217 to 220 °C.

On to `O=C(c1sc(NC(=O)C2CCCO2)nc1-c1ccco1)C1CCOCC1` (stereo not drawn) [Compound 523, N-[4-(2-Furyl)-5-(tetrahydropyran-4-ylcarbonyl)thiazol-2-yl]tetrahydrofuran-2-carboxamide], for which the melting point was in the range of 115 to 117 °C.

As for `O=C(Nc1nc(-c2ccco2)c(C(=O)C2CCOCC2)s1)C1CCOC1` (stereo not drawn) [Compound 524, N-[4-(2-Furyl)-5-(tetrahydropyran-4-ylcarbonyl)thiazol-2-yl]tetrahydrofuran-3-carboxamide], the melting point was 164 to 166 °C.

`O=C(CC1CCOCC1)Nc1nc(-c2ccco2)c(C(=O)C2CCOCC2)s1` [Compound 525, N-[4-(2-Furyl)-5-(tetrahydropyran-4-ylcarbonyl)thiazol-2-yl]-2-(tetrahydropyran-4-yl)acetamide]: the melting point was 206 to 209 °C.

For the molecule `O=C(Cc1ccccc1)Nc1nc(-c2ccco2)c(C(=O)C2CCOCC2)s1` [Compound 526, N-[4-(2-Furyl)-5-(tetrahydropyran-4-ylcarbonyl)thiazol-2-yl]-2-phenylacetamide], the melting point was 140 to 142 °C.

Take `O=C(CCc1ccccc1)Nc1nc(-c2ccco2)c(C(=O)C2CCOCC2)s1` [Compound 527, N-[4-(2-Furyl)-5-(tetrahydropyran-4-ylcarbonyl)thiazol-2-yl]-3-phenylpropanamide]: the melting point lay in the range of 161 to 164 °C.

In turn, `O=C(C=Cc1ccccc1)Nc1nc(-c2ccco2)c(C(=O)C2CCOCC2)s1` [Compound 528, N-[4-(2-Furyl)-5-(tetrahydropyran-4-ylcarbonyl)thiazol-2-yl]-3-phenylacrylamide] had a melting point of 253 to 256 °C.

Turning to `O=C(COc1ccccc1)Nc1nc(-c2ccco2)c(C(=O)C2CCOCC2)s1` [Compound 529, N-[4-(2-Furyl)-5-(tetrahydropyran-4-ylcarbonyl)thiazol-2-yl]-2-phenoxyacetamide], the melting point is 148 to 150 °C.

The molecule `COCC(=O)Nc1nc(-c2ccco2)c(C(=O)C2CCOCC2)s1` [Compound 530, N-[4-(2-Furyl)-5-(tetrahydropyran-4-ylcarbonyl)thiazol-2-yl]-2-methoxyacetamide] yielded a melting point of 148 to 149 °C.

In turn, `CCOCC(=O)Nc1nc(-c2ccco2)c(C(=O)C2CCOCC2)s1` [Compound 532, 2-Ethoxy-N-[4-(2-furyl)-5-(tetrahydropyran-4-ylcarbonyl)thiazol-2-yl]acetamide] came in with a melting point of 121 to 126 °C.

The molecule `CN(C)CC(=O)Nc1nc(-c2ccco2)c(C(=O)C2CCOCC2)s1` [Compound 533, 2-(Dimethylamino)-N-[4-(2-furyl)-5-(tetrahydropyran-4-ylcarbonyl)thiazol-2-yl]acetamide] had a melting point of 129 to 130 °C.

Take `COCCN(C)CC(=O)Nc1nc(-c2ccco2)c(C(=O)C2CCOCC2)s1` [Compound 534, N-[4-(2-Furyl)-5-(tetrahydropyran-4-ylcarbonyl)thiazol-2-yl]-2-[N-(2-methoxyethyl)-N-methylamino]acetamide]: the melting point was in the range of 103 to 105 °C.

As to `O=C(CN1CCCC1)Nc1nc(-c2ccco2)c(C(=O)C2CCOCC2)s1` [Compound 536, N-[4-(2-Furyl)-5-(tetrahydropyran-4-ylcarbonyl)thiazol-2-yl]-2-(1-pyrrolidinyl)acetamide], the melting point is 115 to 117 °C.

Take `COC[C@H]1CCCN1CC(=O)Nc1nc(-c2ccco2)c(C(=O)C2CCOCC2)s1` [Compound 537, N-[4-(2-Furyl)-5-(tetrahydropyran-4-ylcarbonyl)thiazol-2-yl]-2-[(2R)-2-(methoxymethyl)pyrrolidin-1-yl]acetamide]: the melting point is 103 to 104 °C.

For `O=C(CN1CCCCC1)Nc1nc(-c2ccco2)c(C(=O)C2CCOCC2)s1` [Compound 542, N-[4-(2-Furyl)-5-(tetrahydropyran-4-ylcarbonyl)thiazol-2-yl]-2-piperidinoacetamide], the melting point was in the range of 146 to 147 °C.

`O=C(CN1CCC(O)CC1)Nc1nc(-c2ccco2)c(C(=O)C2CCOCC2)s1` [Compound 543, N-[4-(2-Furyl)-5-(tetrahydropyran-4-ylcarbonyl)thiazol-2-yl]-2-(4-hydroxypiperidino)acetamide]: the melting point fell in the range of 178 to 180 °C.

The record behind these values is patent publication US7718808B2, “Thiazole derivatives” (Kyowa Hakko Kirin Co., Ltd., priority 2003, dated 2010).
